Results published in patent US10844092B2, “Peptide for promoting regeneration of dentin or dental pulp tissue” (HysensBio Co., Ltd., priority 2016, dated 2020).

Tested on: Dspp gene
Test: mRNA level of Dspp gene in MDPC-23 cells by real-time PCR
Format: cell-based, mouse
Conditions: 48 hours, ratio relative to Dspp mRNA level of control group, triplicate
Description: The MDPC-23 cells cultured in Example 2-1 were treated with the peptides of the respective groups which were synthesized in Example 1, and cultured for 48 hours. Then, mRNA levels of an odontoblast differentiation marker Dspp gene expressed in the MDPC-23 cells were measured, and a ratio of the measured Dspp mRNA level relative to a Dspp mRNA level measured in a control group was calculated, respectively (Tables 13 to 24). Further, mean values of the Dspp mRNA levels measured in the peptides of respective groups were compared between the groups (FIG. 1B). In this regard MDPC-23 cells which were treated with none of the peptides of the present invention were used as a control group.
The expression levels of the Dspp gene were measured by RT-PCR and real time PCR analysis: In detail, total RNA was extracted from the MDPC-23 cells with TRIzol reagent. 2 μg of the total RNA, 1 μl of reverse transcriptase, and 0.5 μg oligo (dT) were used to synthesize cDNA. The synthesized cDNA were used in real-time polymerase chain reaction. The real-time polymerase chain reaction was performed on an ABI PRISM 7500 sequence detection system (Applied Biosystems) using the following primers and a SYBR GREEN PCR Master Mix (Takara, Japan). The real-time polymerase chain reaction was performed under conditions of 94° C., 1 min; 95° C., 15 sec 60° C., 34 sec for 40 cycles. Results were analyzed by a comparative cycle threshold (CT) method. In this regard, Gapdh gene was used as an internal control. The experiments were performed in triplicate, and then mean values and standard deviations thereof were taken as measured values.

Row | Substance | mRNA level of Dspp gene, Mean
1 | 1 (KYQRRKKNKY; Synthetic construct of novel peptide) [compound 1] | 1.754
2 | 2 (KYQRRKRNKY; Synthetic construct of novel peptide) [compound 2] | 1.646
3 | 3 (KYQRRRKNKY; Synthetic construct of novel peptide) [compound 3] | 1.464
4 | 4 (KYQRRRRNKY; Synthetic construct of novel peptide) [compound 4] | 1.855
5 | 5 (KYQRKKKNKY; Synthetic construct of novel peptide) [compound 5] | 1.639
6 | 6 (KYQRKRKNKY; Synthetic construct of novel peptide) [compound 6] | 1.746
7 | 7 (KYQRKKRNKY; Synthetic construct of novel peptide) [compound 7] | 1.864
8 | 8 (KYQRKRRNKY; Synthetic construct of novel peptide) [compound 8] | 1.639
9 | 9 (KYQRRKKSKY; Synthetic construct of novel peptide) [compound 9] | 1.854
10 | 10 (KYQRRKRSKY; Synthetic construct of novel peptide) [compound 10] | 1.746
11 | 11 (KYQRRRKSKY; Synthetic construct of novel peptide) [compound 11] | 1.639
12 | 12 (KYQRRRRSKY; Synthetic construct of novel peptide) [compound 12] | 1.548
13 | 13 (KYQRKKKSKY; Synthetic construct of novel peptide) [compound 13] | 1.685
14 | 14 (KYQRKRKSKY; Synthetic construct of novel peptide) [compound 14] | 1.846
15 | 15 (KYQRKKRSKY; Synthetic construct of novel peptide) [compound 15] | 1.964
16 | 16 (KYQRKRRSKY; Synthetic construct of novel peptide) [compound 16] | 1.739
17 | 17 (KYQRRKKNYK; Synthetic construct of novel peptide) [compound 17] | 2.117
18 | 18 (KYQRRKRNYK; Synthetic construct of novel peptide) [compound 18] | 2.319
19 | 19 (KYQRRRKNYK; Synthetic construct of novel peptide) [compound 19] | 1.931
20 | 20 (KYQRRRRNYK; Synthetic construct of novel peptide) [compound 20] | 2.553
21 | 21 (KYQRKKKNYK; Synthetic construct of novel peptide) [compound 21] | 1.893
22 | 22 (KYQRKRKNYK; Synthetic construct of novel peptide) [compound 22] | 2.412

Row | Substance | mRNA level of Dspp gene, Mean
23 | 23 (KYQRKKRNYK; Synthetic construct of novel peptide) [compound 23] | 2.171
24 | 24 (KYQRKRRNYK; Synthetic construct of novel peptide) [compound 24] | 2.212
25 | 25 (KYQRRKKSYK; Synthetic construct of novel peptide) [compound 25] | 2.371
26 | 26 (KYQRRKRSYK; Synthetic construct of novel peptide) [compound 26] | 2.193
27 | 27 (KYQRRRKSYK; Synthetic construct of novel peptide) [compound 27] | 1.993
28 | 28 (KYQRRRRSYK; Synthetic construct of novel peptide) [compound 28] | 2.453
29 | 29 (KYQRKKKSYK; Synthetic construct of novel peptide) [compound 29] | 1.883
30 | 30 (KYQRKRKSYK; Synthetic construct of novel peptide) [compound 30] | 2.512
31 | 31 (KYQRKKRSYK; Synthetic construct of novel peptide) [compound 31] | 2.371
32 | 32 (KYQRKRRSYK; Synthetic construct of novel peptide) [compound 32] | 2.219
33 | 33 (KYRQRKKNKY; Synthetic construct of novel peptide) [compound 33] | 1.712
34 | 34 (KYRQRKRNKY; Synthetic construct of novel peptide) [compound 34] | 1.931
35 | 35 (KYRQRRKNKY; Synthetic construct of novel peptide) [compound 35] | 1.983
36 | 36 (KYRQRRRNKY; Synthetic construct of novel peptide) [compound 36] | 2.319
37 | 37 (KYRQKKKNKY; Synthetic construct of novel peptide) [compound 37] | 1.597
38 | 38 (KYRQKRKNKY; Synthetic construct of novel peptide) [compound 38] | 2.116
39 | 39 (KYRQKKRNKY; Synthetic construct of novel peptide) [compound 39] | 1.712
40 | 40 (KYRQKRRNKY; Synthetic construct of novel peptide) [compound 40] | 2.219
41 | 41 (KYRQRKKSKY; Synthetic construct of novel peptide) [compound 41] | 1.546
42 | 42 (KYRQRKRSKY; Synthetic construct of novel peptide) [compound 42] | 1.586
43 | 43 (KYRQRRKSKY; Synthetic construct of novel peptide) [compound 43] | 1.669
44 | 44 (KYRQRRRSKY; Synthetic construct of novel peptide) [compound 44] | 1.793

Row | Substance | mRNA level of Dspp gene, Mean
45 | 45 (KYRQKKKSKY; Synthetic construct of novel peptide) [compound 45] | 1.532
46 | 46 (KYRQKRKSKY; Synthetic construct of novel peptide) [compound 46] | 1.887
47 | 47 (KYRQKKRSKY; Synthetic construct of novel peptide) [compound 47] | 1.697
48 | 48 (KYRQKRRSKY; Synthetic construct of novel peptide) [compound 48] | 1.558
49 | 49 (KYRQRKKNYK; Synthetic construct of novel peptide) [compound 49] | 1.923
50 | 50 (KYRQRKRNYK; Synthetic construct of novel peptide) [compound 50] | 1.887
51 | 51 (KYRQRRKNYK; Synthetic construct of novel peptide) [compound 51] | 1.601
52 | 52 (KYRQRRRNYK; Synthetic construct of novel peptide) [compound 52] | 2.019
53 | 53 (KYRQKKKNYK; Synthetic construct of novel peptide) [compound 53] | 1.592
54 | 54 (KYRQKRKNYK; Synthetic construct of novel peptide) [compound 54] | 1.437
55 | 55 (KYRQKKRNYK; Synthetic construct of novel peptide) [compound 55] | 1.663
56 | 56 (KYRQKRRNYK; Synthetic construct of novel peptide) [compound 56] | 1.701
57 | 57 (KYRQRKKSYK; Synthetic construct of novel peptide) [compound 57] | 2.039
58 | 58 (KYRQRKRSYK; Synthetic construct of novel peptide) [compound 58] | 1.998
59 | 59 (KYRQRRKSYK; Synthetic construct of novel peptide) [compound 59] | 1.792
60 | 60 (KYRQRRRSYK; Synthetic construct of novel peptide) [compound 60] | 2.107
61 | 61 (KYRQKKKSYK; Synthetic construct of novel peptide) [compound 61] | 2.301
62 | 62 (KYRQKRKSYK; Synthetic construct of novel peptide) [compound 62] | 1.672
63 | 63 (KYRQKKRSYK; Synthetic construct of novel peptide) [compound 63] | 1.769
64 | 64 (KYRQKRRSYK; Synthetic construct of novel peptide) [compound 64] | 1.967
65 | 65 (KYKQRKKNKY; Synthetic construct of novel peptide) [compound 65] | 1.723
66 | 66 (KYKQRKRNKY; Synthetic construct of novel peptide) [compound 66] | 1.627
